The source of these data is US7276339B2 (H. Lundbeck A/S, priority 1998, dated 2007).

For series [1] the following is noted: cited from earlier work.
Another series addresses T1, human NPFF1 receptor (Homo sapiens, UniProt Q9GZQ6).
T1 construct: To obtain a full-length hNPFF1 construct in the correct orientation; expressed in transfected cells; host or cells: HEK-293 (transient)
Put plainly: [125I]D-Tyr-NPFF radioligand binding, HEK-293 cells expressing human NPFF1. The method, then: (§1) Transfected cells from culture flasks are scraped into 5 ml of 20 mM Tris-HCl, 5 mM EDTA, pH 7.5, and lysed by sonication. The cell lysates are centrifuged at 1000 rpm for 5 min. at 4° C., and the supernatant is centrifuged at 30,000×g for 20 min. at 4° C. The pellet is suspended in binding buffer (50 mM Tris-HCl, 60 mM NaCl, 1 mM MgCl, 33 μM EDTA, 33 μM EGTA at pH 7.4 supplemented with 0.2% BSA, 2 μg/ml aprotinin, and 20 μM bestatin). Optimal membrane suspension dilutions, defined as the protein concentration required to bind less than 10% of the added radioligand, are added to 96-well polpropylene microtiter plates containing ^3H-labeled compound, unlabeled compounds, and binding buffer to a final volume of 250 μl. In equilibrium saturation binding assays membrane preparations are incubated in the presence of increasing concentrations of [^3H]-labeled compound. The binding affinities of the different compounds are determined in equilibrium competition binding assays, using [^125I]-labeled compound in the presence of ten to twelve different concentrations of the displacing ligands. Competition assay: 50 pM radioligand, 10-12 points. Binding reaction mixtures are incubated for 2 hr at 25° C., and the reaction stopped by filtration through a double layer of GF filters treated with 0.1% polyethyleneimine, using a cell harvester. Wash buffer: 50 mM Tris-HCl, 0.1% BSA. Radioactivity may be measured by scintillation counting and data are analyzed by a computerized non-linear regression program. Non-specific binding is defined as the amount of radioactivity remaining after incubation of membrane protein in the presence of 1 μM final concentration […]. Protein concentration may be measured by the Bradford method using Bio-Rad Reagent, with bovine serum albumin as a standard.
(§2) Additional pharmacological evaluation was done using 293 human embryonic kidney cells (HEK-293 cells) transiently expressing the genes encoding the human NPFF1, NPFF2, and rat NPFF1 receptors, as well as Cos-7 cells expressing the rat NPFF2 receptors.

In series [2] the target is T2, rat NPFF1 receptor (Rattus norvegicus, UniProt Q9EP86). Put plainly: [125I]D-Tyr-NPFF radioligand binding, HEK-293 cells expressing rat NPFF1. The arrangement: expressed in transfected cells. The method, then:
as §1, §2

In the next series the target is T3, human NPFF2 receptor (Homo sapiens, UniProt Q9Y5X5).
T3 construct: BO89, was determined to be a full length clone with no point mutations; expressed in transfected cells; host or cells: HEK-293 (transient)
T3 sequence (Q9Y5X5 103-522): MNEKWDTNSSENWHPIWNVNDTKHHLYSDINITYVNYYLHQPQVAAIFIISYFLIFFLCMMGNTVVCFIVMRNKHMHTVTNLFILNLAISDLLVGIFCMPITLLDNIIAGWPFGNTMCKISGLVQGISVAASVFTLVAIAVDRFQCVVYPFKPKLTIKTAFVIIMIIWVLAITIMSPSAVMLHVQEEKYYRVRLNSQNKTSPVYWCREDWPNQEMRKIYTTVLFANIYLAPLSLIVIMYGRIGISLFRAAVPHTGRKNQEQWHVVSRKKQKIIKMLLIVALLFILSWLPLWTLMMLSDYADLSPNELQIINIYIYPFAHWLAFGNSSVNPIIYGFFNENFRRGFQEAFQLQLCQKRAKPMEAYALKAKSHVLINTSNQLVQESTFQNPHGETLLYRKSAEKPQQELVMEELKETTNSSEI
Put plainly: [125I]D-Tyr-NPFF radioligand binding, HEK-293 cells expressing human NPFF2. The note with it: Table 3, HEK-293 cells, [125I]D-Tyr-NPFF. Here is the method: as §1, §2

Series [3] has as its target T4, rat NPFF2 receptor (Rattus norvegicus, UniProt Q9EQD2).
T4 construct: The full-length rat NPFF2 clone was amplified from rat spinal cord cDNA; expressed in transfected cells; host or cells: COS-7
Briefly: [125I]D-Tyr-NPFF radioligand binding, cloned rat NPFF2. Conditions: Table 3, title HEK-293 cells (text: Cos-7), [125I]D-Tyr-NPFF. Here is the method:
as §1, §2

The target in another series is T5, human NPY Y1 receptor (Homo sapiens, UniProt P25929).
T5 sequence (P25929 1-384): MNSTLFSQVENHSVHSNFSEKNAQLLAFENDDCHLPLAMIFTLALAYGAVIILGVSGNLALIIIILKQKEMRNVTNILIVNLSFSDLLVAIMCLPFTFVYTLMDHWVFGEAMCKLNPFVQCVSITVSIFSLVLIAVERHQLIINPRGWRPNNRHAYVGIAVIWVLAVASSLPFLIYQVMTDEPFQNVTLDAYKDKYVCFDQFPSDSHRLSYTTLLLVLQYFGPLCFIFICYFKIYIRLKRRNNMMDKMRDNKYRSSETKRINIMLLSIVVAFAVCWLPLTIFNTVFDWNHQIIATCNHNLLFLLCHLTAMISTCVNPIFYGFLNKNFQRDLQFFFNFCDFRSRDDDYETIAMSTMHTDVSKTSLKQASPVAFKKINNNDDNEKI
Conditions: cited from earlier work.

In series [4] the target is T2, rat NPFF1 receptor. Put plainly: Functional activity at cloned rat NPFF1 in COS-7 cells. The class given is cell-based. The arrangement: expressed in transfected cells; host or cells: COS-7 (transient).
For series [5], the target named is T4, rat NPFF2 receptor. Put plainly: Functional activity at cloned rat NPFF2 in COS-7 cells. The series is classed as cell-based.
A further series has as its system normotensive rats. Briefly: Blood pressure in anesthetized normotensive rats, intravenous administration. The class given is in vivo, rat. The source says: Rats were anesthetized with urethane and PE50 cannulae were placed in the femoral artery and vein for blood pressure monitoring and drug administration, respectively.
In the next series the test system is anesthetized rats. Put plainly: Distension-induced rhythmic contraction (DIRC) model of the micturition reflex in anesthetized rats. The class given is in vivo, rat. The note with it: i.v. The method, then: The effects of compounds on the micturition reflex were assessed in the “distension-induced rhythmic contraction” (DIRC) model in rats. This model of the micturition reflex has been described in previous publications (e.g. 72, 73).
Female Sprague Dawley rats weighing approximately 300 g were anesthetized with subcutaneous urethane (1.2 g/kg). The trachea was cannulated with PE240 tubing to provide a clear airway throughout the experiment. A midline abdominal incision was made and the left and right ureters were isolated. The ureters were ligated distally (to prevent escape of fluids from the bladder) and cannulated proximally with PE10 tubing. The incision was closed using 4-0 silk sutures, leaving the PE10 lines routed to the exterior for the elimination of urine. The bladder was canulated via the transurethral route using PE50 tubing inserted 2.5 cm beyond the urethral opening. This cannula was secured to the tail using tape and connected to a pressure transducer. To prevent leakage from the bladder, the cannula was tied tightly to the exterior urethral opening using 4-0 silk.
To initiate the micturition reflex, the bladder was first emptied by applying pressure to the lower abdomen, and then filled with normal saline in 100 μl increments (maximum=2 ml) until spontaneous bladder contractions occurred (typically 20-40 mmHg at a rate of one contraction every 2 to 3 minutes. Once a regular rhythm was established, vehicle (saline) or test compounds were administered intravenously to examine their effects on bladder activity. The effect of a compound which inhibited the micturition reflex was expressed as its “disappearance time”, defined as the time between successive bladder contractions in the presence of the test compound minus the time between contractions before compound administration.

The next series concerns the target T6, NPFF-1 receptor (Rattus norvegicus, UniProt Q9EP86).
T6 construct: expressed in transfected cells; host or cells: COS-7 (transient), alone or co-transfected with Gq/Gz chimera
Briefly: Total inositol phosphate release, Cos-7 cells transiently transfected with NPFF1. The series is classed as cell-based.

The target in the next series is T7, NPFF1 (SNORF2) (Rattus norvegicus, UniProt Q9EP86).
T7 construct: linearized plasmids or PCR products containing the complete coding region of the genes; expressed in transfected cells; host or cells: Xenopus laevis oocytes injected with synthetic RNA (T7 transcripts)
T7 sequence (Q9EP86 whole entry): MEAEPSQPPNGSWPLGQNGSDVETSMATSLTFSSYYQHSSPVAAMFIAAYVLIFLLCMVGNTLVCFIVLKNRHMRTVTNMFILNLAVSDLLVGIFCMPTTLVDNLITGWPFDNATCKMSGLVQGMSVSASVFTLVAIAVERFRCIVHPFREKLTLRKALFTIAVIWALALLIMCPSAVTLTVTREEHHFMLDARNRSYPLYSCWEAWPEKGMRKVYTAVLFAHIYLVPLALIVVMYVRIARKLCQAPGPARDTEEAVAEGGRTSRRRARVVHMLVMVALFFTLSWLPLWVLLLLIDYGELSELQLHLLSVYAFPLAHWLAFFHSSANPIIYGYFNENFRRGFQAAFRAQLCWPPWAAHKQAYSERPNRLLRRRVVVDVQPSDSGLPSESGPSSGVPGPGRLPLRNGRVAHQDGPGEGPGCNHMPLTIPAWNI
Briefly: Voltage-clamp electrophysiology, Xenopus oocytes injected with SNORF2 (NPFF1) and chimeric Gαq/z RNA. The series is classed as cell-based. The note with it: oocytes with SNORF2 + Gαq/z. Here is the method:
Oocytes were harvested from Xenopus laevis and injected with mRNA transcripts as previously described (Quick and Lester, 1994; Smith et al., 1997). […] Three to eight hours prior to recording, oocytes were injected with 500 pg Gαq/z mRNA in order to observe coupling to Ca^++ activated Cl^− currents. Dual electrode voltage clamp (Axon Instruments Inc.) was performed using 3 M KCl-filled glass microelectrodes having resistances of 1-2 Mohm. Unless otherwise specified, oocytes were voltage clamped at a holding potential of −80 mV. During recordings, oocytes were bathed in continuously flowing (1-3 ml/min) medium containing 96 mM NaCl, 2 mM KCl, 1.8 mM CaCl2, 1 mM MgCl2, and 5 mM HEPES, pH 7.5 (ND96). Drugs were applied either by local perfusion from a […] glass capillary tube fixed at a distance of 0.5 mm from the oocyte, or by switching from a series of gravity fed perfusion lines.
Heterologous expression of GPCRs in Xenopus oocytes has been widely used to determine the identity of signaling pathways activated by agonist stimulation (Gundersen et al., 1983; Takahashi et al., 1987). Activation of the phospholipase C (PLC) pathway is assayed by applying test compound in ND96 solution to oocytes previously injected with mRNA for the mammalian receptor and observing inward currents at a holding potential of −80 mV. The appearance of currents that reverse at −25 mV and display other properties of the Ca^++-activated Cl^− (chloride) channel is indicative of mammalian receptor-activation of PLC and release of IP3 and intracellular Ca^++.

[6] abbreviates: COS-7 cells, read-out: EC50, rat NPFF1.
Where [7] appears, read: 0.3 mg/kg, 1 minute before the agonist.

Read-outs that look alike come from different tables or passages of the source. Non-standard residues stand in square brackets, D forms with d. Residues, ends and D or L forms follow the SMILES beside them. No end group written: not given here. NMeF = CN[C@@H](Cc1ccccc1)C(=O)O

T2 sequence (Q9EP86 whole entry): as above
T4 sequence (Q9EQD2 whole entry): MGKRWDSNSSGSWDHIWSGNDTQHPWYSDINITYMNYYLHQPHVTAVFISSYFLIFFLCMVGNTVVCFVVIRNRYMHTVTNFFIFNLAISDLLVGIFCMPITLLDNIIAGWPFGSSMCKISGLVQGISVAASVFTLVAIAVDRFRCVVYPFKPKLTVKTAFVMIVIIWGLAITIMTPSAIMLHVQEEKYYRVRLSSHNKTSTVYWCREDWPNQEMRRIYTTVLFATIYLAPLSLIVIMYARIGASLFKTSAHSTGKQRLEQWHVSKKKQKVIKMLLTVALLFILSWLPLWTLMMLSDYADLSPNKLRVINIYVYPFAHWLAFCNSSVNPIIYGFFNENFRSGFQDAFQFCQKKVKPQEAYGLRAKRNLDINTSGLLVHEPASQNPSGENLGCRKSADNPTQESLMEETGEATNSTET
T6 sequence (Q9EP86 whole entry): as the sequence (Q9EP86 whole entry) above
T1 sequence (Q9GZQ6 whole entry): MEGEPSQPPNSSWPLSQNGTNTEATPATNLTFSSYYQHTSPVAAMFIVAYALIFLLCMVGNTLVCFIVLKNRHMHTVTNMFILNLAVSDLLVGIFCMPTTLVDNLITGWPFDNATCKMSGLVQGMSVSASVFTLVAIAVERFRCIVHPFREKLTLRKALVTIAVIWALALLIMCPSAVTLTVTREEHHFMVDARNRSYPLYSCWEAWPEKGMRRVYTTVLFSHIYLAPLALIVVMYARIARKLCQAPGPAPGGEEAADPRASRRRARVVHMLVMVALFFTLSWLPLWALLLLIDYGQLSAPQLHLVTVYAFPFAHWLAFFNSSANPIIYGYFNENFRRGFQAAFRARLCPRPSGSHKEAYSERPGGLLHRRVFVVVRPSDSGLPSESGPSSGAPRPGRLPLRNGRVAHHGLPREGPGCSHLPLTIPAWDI

Turning to `CC(C)C[C@H](NC(=O)[C@H](N)Cc1ccc(O)cc1)C(=O)N(C)[C@@H](Cc1ccccc1)C(=O)N[C@@H](CCC(N)=O)C(=O)N1CCC[C@H]1C(=O)N[C@@H](CCC(N)=O)C(=O)N[C@@H](CCCN=C(N)N)C(=O)N[C@@H](Cc1ccccc1)C(N)=O` [(D-Tyr^1-(NMe)Phe^3)NPFF] (H-[dY]L[NMeF]QPQRF-NH2), the “stable after incubation with rat spinal cord membranes” value in [1] (150 min. incubation) is on record as 90%. The Ki on human NPFF1 receptor (Table 3, read-out: pKi ± SEM, human NPFF1 (converted)) is 7.94 nM; at rat NPFF1 receptor [2] (Table 3, read-out: pKi ± SEM, rat NPFF1 (converted)) it was 1.58 nM; at human NPFF2 receptor (read-out: pKi ± SEM, human NPFF2 (converted)), 3.16 nM; at rat NPFF2 receptor [3] (read-out: pKi ± SEM, rat NPFF2 (converted)), 2 nM.
As for `NC(N)=NCCC[C@H](NC(=O)C(c1ccccc1)c1ccccc1)C(=O)NCc1ccc(O)cc1` [BIBP3435], at human NPY Y1 receptor, the “binding affinity, human NPY Y1 receptor” value is given as > 10,000 nM. In addition, the “Maximum Effect (% NPFF), rat NPFF1” value on rat NPFF1 receptor [4] (COS-7 cells) is 0 % NPFF. Moreover, at rat NPFF1 receptor [4] (setting [6]), the concentration for a half-maximal effect (EC50) is more than 10000 nM. Also, on rat NPFF2 receptor [5], the EC50 was found to be 5420 nM and the “Maximum Effect (% NPFF), rat NPFF2” value was 71 % NPFF.
For `NC(N)=NCCC[C@@H](NC(=O)C(c1ccccc1)c1ccccc1)C(=O)NCc1ccc(O)cc1` [BIBP 3226], in the series on normotensive rats (setting [7]), the “block of pressor response to fPP” value was “completely blocked”, the “block of pressor response to pLeu,Pro-NPY” value is “completely blocked” and the “reduction of pressor response to NPFF” value is recorded as approximately 50%. Moreover, in the series with anesthetized rats (0.3 mg/kg), the “block of inhibitory effect of fPP on micturition” value is “not blocked” and the “block of inhibitory response to NPFF on micturition” value is “did not block”. Besides, the “pKi ± SEM, human NPFF1” value at human NPFF1 receptor (Table 3) turned out to be 6.9 ± 0.04. Moreover, the “pKi ± SEM, rat NPFF1” value at rat NPFF1 receptor [2] (Table 3) was found to be 7.6±0.04. Besides, on rat NPFF1 receptor [4] (COS-7 cells), the “Maximum Effect (% NPFF), rat NPFF1” value stood at 0 % NPFF. Further, the EC50 on rat NPFF1 receptor [4] (setting [6]) was more than 10000 nM. Moreover, the “pKi ± SEM, human NPFF2” value on human NPFF2 receptor is given as 5.9 ± 0.04. Moreover, the “pKi ± SEM, rat NPFF2” value on rat NPFF2 receptor [3] was 5.8±0.02. Besides, at rat NPFF2 receptor [5], the concentration for a half-maximal effect (EC50) amounted to 944 nM and the “Maximum Effect (% NPFF), rat NPFF2” value was found to be 67 % NPFF.
As for `CC(C)C[C@H](NC(=O)[C@@H](N)Cc1ccccc1)C(=O)N[C@@H](Cc1ccccc1)C(=O)N[C@@H](CCC(N)=O)C(=O)N1CCC[C@H]1C(=O)N[C@@H](CCC(N)=O)C(=O)N[C@@H](CCCNC(=N)N)C(=O)N[C@@H](Cc1ccccc1)C(N)=O` [NPFF], the “effect on mean arterial blood pressure (MAP)” value with normotensive rats (i.v., NPFF 1.0 mg/kg, fPP 0.1 mg/kg) is recorded as “transient increase”. Moreover, the “disappearance time of bladder contractions” value in the series with anesthetized rats (0.3 to 3.0 mg/kg) was “dose-dependently increased”. The “effect on distension-induced rhythmic contractions of the bladder” value with anesthetized rats (fPP 0.1 mg/kg) is recorded as “inhibited”. In addition, the “Emax, total IP release” value on NPFF-1 receptor (NPFF1 + Gq/Gz chimera) is “approximately 1500 % basal”; at NPFF-1 receptor (NPFF1 alone), “approximately 200 % basal”. Moreover, the inward current response entry on NPFF1 (SNORF2) (1 μM, holding potential −80 mV) is reported as “robust inward currents”. Moreover, at NPFF1 (SNORF2), the “threshold for activation of inward current” value amounted to 30 nM. In addition, at rat NPFF1 receptor [4], the midpoint of the response, the EC50, lay at 9.3 nM. Further, the “Maximum Effect (% NPFF), rat NPFF1” value on rat NPFF1 receptor [4] (COS-7 cells) worked out at 100 % NPFF. In addition, the “Maximum Effect (% NPFF), rat NPFF2” value at rat NPFF2 receptor [5] is 100 % NPFF.
On to YLFQPQRF-NH2 [Y8Fa], for which the “degradation on incubation with rat spinal cord membranes” value in series [1] (after 30 minutes) is given as “fully degraded”.
